From publication PMC11722135, “Structure- and Ligand-Based Virtual Screening for Identification of Novel TRPV4 Antagonists” (Molecules, 2024)
Entries after “also recorded” stand apart in the source; their conditions may differ.

How the values were obtained:
human TRPV4 [1] = molecular target: T1, human TRPV4 (Homo sapiens, UniProt Q9HBA0); assay: FLIPRtetra calcium assay, second addition (antagonism of 500 nM GSK1016790A); type: cell-based; conditions: for IC50: HEK-293 cells transiently transfected with human TRPV4, 500 nM GSK1016790A, 37 °C, read-out: IC50 (inhibition of response evoked by GSK1016790A); for Inhibitory effect / activity on hTRPV4 in vitro: natural stilbenoids, 0.05–37.5 µM concentration series
T1 construct: host or cells: HEK-293 cells (ATCC), transient transfection
Procedure: (§1) The TRPV4 pharmacology of the hit compounds (Enamine) and the natural stilbenoids (purity > 95%, extracted at the Laboratory of Organic Chemistry at Åbo Akademi University) was studied with the fluorometric imaging plate reader FLIPR^tetra (Molecular Devices, San Jose, CA, USA) using a dual addition protocol, in which a compound’s agonism is initially measured and then, subsequently, a reference agonist is added to assess the compound’s possible antagonism. The studies were conducted in a 96-well plate format using HEK-293 cells (ATCC) that were transiently transfected with the human TRPV4 plasmid (Origene, Rockville, MD, USA, cat. SC309684). HEK cells were used as they are easy to transfect, and TRPV4 overexpressing cells provide a robust system to study TRPV4-mediated calcium responses with a wide signal window. In the experiments, the cells were loaded with a Calcium 4 Assay reagent (Molecular Devices) to enable intracellular calcium measurements. The study protocol was initiated by dispensing a concentration series (0.05–37.5 µM) of the test compounds on cells by FLIPR^tetra, and the agonism was recorded for 10 min followed by the second addition, 500 nM of the known TRPV4 agonist GSK1016790A (Sigma-Aldrich, St. Louis, […], USA, cat. G0798). The antagonism of the test compounds was measured for 2 min. All the experiments were performed at 37 °C. The excitation and emission were measured at wavelengths of 470–495 nm and 515–575 nm, respectively.
(§2) In compound agonism and antagonism analysis, the fluorescence values were normalized by subtracting the baseline value from the maximum value of the first 10 min and of the last 2 min measured for each well, respectively. EC50 and IC50 values were determined from dose–response curves using a nonlinear regression curve fit by Prism (version 9.1.0). Dose–response curves were constructed from a mean of 3 separate wells at each compound concentration.

TRPV4 = tested on: TRPV4; design: method as in doi:10.1101/2020.10.13.334797; conditions: read-out: EC50 (TRPV4 agonist); cited from earlier work
human TRPV4 [2] = molecular target: T1, human TRPV4; assay: FLIPRtetra calcium assay, first addition (agonism); type: cell-based
Procedure: as §1, §2

T1 sequence (Q9HBA0 whole entry): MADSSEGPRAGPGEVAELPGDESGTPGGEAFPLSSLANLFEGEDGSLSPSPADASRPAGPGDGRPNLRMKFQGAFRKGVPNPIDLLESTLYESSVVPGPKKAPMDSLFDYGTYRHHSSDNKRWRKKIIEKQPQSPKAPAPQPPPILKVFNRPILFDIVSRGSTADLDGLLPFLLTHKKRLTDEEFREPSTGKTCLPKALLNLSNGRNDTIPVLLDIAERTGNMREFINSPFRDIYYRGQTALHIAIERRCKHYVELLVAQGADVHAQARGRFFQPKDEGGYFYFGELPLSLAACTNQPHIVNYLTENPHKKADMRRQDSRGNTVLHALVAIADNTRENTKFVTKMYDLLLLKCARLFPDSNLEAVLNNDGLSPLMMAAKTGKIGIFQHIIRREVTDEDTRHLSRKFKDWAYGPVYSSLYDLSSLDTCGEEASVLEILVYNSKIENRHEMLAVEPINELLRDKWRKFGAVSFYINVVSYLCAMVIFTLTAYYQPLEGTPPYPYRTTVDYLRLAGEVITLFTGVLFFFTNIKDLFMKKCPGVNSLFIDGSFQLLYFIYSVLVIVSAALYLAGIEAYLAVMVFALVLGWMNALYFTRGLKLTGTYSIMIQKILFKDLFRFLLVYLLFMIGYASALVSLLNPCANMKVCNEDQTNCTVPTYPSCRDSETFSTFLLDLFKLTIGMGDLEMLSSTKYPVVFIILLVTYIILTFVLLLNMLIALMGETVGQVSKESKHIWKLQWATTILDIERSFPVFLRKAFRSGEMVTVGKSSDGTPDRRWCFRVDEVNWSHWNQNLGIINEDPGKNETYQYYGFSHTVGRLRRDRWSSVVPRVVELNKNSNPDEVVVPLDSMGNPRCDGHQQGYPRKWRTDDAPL

SMILES: O=C(CC(NC(=O)c1ccccc1Cl)c1ccccc1)Nc1ccc(N2CCCC2)nc1 (stereo not drawn) [Z221487176]
- IC50 (human TRPV4 [1]): > 30 µM

SMILES: CC(C)C[C@H](NC(=O)c1cc2ccccc2s1)C(=O)N1CCN(C(=O)[C@H](CO)NS(=O)(=O)c2ccc(Cl)cc2Cl)CC1 [GSK1016790A]
- EC50 (TRPV4): 0.002 µM

SMILES: O=C(CC1C(=O)Nc2ccccc2N1C(=O)/C=C/c1ccccc1)Nc1ccc(F)cc1 (stereo not drawn) [Z1213735368]
- Inhibition of the response evoked by GSK1016790A (human TRPV4 [1]; 10 µM, 500 nM GSK1016790A): inhibited the response evoked by GSK1016790A; also recorded: inhibited the response induced by GSK1016790A
- Inhibitory effect on hTRPV4 / reversal of the effect of GSK1016790A (human TRPV4 [1]; 30 µM (high concentration), 500 nM GSK1016790A): reverse the effect of GSK1016790A
- IC50 (human TRPV4 [1]): 8 µM
- Agonistic activity on the channel (human TRPV4 [2]; 10 µM): without any agonistic activity
- Increase in the fluorescence signal / [Ca2+] (agonism) (human TRPV4 [2]; high concentration (30 µM)): evoked a slow increase in the fluorescence signal; also recorded: gradually raised [Ca^2+] levels

SMILES: CCCCCCCCCC(=O)O[C@@H]1[C@@H](C)[C@@]2(O)[C@@H](C=C(CO)C[C@@]3(O)C(=O)C(C)=C[C@@H]23)[C@@H]2C(C)(C)[C@]12OC(=O)CCCCCCCCC [4α-PDD, 4α-phorbol 12,13-didecanoate]
- EC50 (TRPV4): 0.2 µM

SMILES: OC[C@H]1O[C@@H](Oc2cc(O)cc(/C=C/c3ccc(O)c(O)c3)c2)[C@H](O)[C@@H](O)[C@@H]1O [Astringin, astringin]
- Inhibitory effect / activity on hTRPV4 in vitro (human TRPV4 [1]): inactive

SMILES: CN1C(=O)c2ccc(NCc3nc(-c4c(F)cccc4F)cs3)cc2C1=O [Z1728742868]
- Inhibition of the effect of GSK1016790A (human TRPV4 [1]; 37.5 µM (highest test concentration), 500 nM GSK1016790A): inhibited the effect of GSK1016790A; also recorded: effectively inhibited the response
- EC50 (human TRPV4 [2]; HEK-293 cells transiently transfected with human TRPV4, 37 °C, read-out: EC50 (increase in intracellular calcium)): 14 µM

SMILES: COc1cc(/C=C/c2cc(O)cc(O[C@@H]3O[C@H](CO)[C@@H](O)[C@H](O)[C@H]3O)c2)ccc1O [Isorhapontin, isorhapontin]
- Inhibitory effect / activity on hTRPV4 in vitro (human TRPV4 [1]): inactive
